Laboratory results published in patent US20100048731A1, “Hydroxylated Long-Chain Resveratrol Derivatives Useful as Neurotrophic Agents” (Centre National de la Recherche Scientifique(CNRS), priority 2006, published 2010).
Read-outs that look alike come from different tables or passages of the source.

Experiments:
[1] = system: microglial cell cultures treated with LPS; test: Nitrite release (Griess method) in LPS-activated microglial cell cultures; type: cell-based; settings: LPS 0.01 μg/ml; for decrease in nitrite production compared to the control values: three independent experiments, concentration not stated (5×10^-6, 10^-6 and 10^-7 M tested)
From the text: (§1) The experiments carried out thus relate to the capacity of RFA molecules (MRFA and DMRFA) to inhibit, in activated microglia, the release of nitrites and TNF-α.
The activity of NO-synthase type II (NOS II) represents a microglial activity parameter often analyzed in the literature. This enzyme is responsible for the synthesis of nitric oxide radicals under conditions of inflammatory activation. Microglia at rest only express levels at the immunoblotting detection limit. Activation of 24 to 48 hours leads to a strong increase in this expression. The product of this enzyme, NO, quickly breaks down in culture to form nitrites.
(§2) In the experiments performed, NO2^− concentrations were measured after 24 hours and 48 hours of activation in microglial cell cultures treated with 0.01 μg/ml of LPS, in the presence of products RFA-12, MRFA-10, MRFA-12, MRFA-14, MRFA-16, MRFA-18, DMRFA-10, DMRFA-12, DMRFA-14, DMRFA-16, DMRFA-18, M-resveratrol, DM-resveratrol and resveratrol at concentrations of 5×10^−6 M, 10^−6 M and 10^−7 M.

[2] = system: microglial cell cultures treated with LPS; test: TNF-α release (ELISA) in LPS-activated microglial cell cultures; type: cell-based; settings: read-out: decrease in TNF-α production compared to control values
Description: as §1
The expression of TNF-α represents a microglial activation parameter often analyzed in the literature. […] A 24-hour activation by LPS leads to a strong increase in expression, detectable by ELISA.
as §2, with “TNF-α” for “NO2^−”, “24” for “24 hours and 48”, “LPS” for “LPS,”, “of” for “of products RFA-12,”

[3] = system: neural stem cells; test: Neural stem cell proliferation; type: cell-based, mouse; settings: 10^-6 M; cultured for 5 days
Description: (§3) Neurospheres are obtained from mouse embryo telencephalon cells cultivated in a defined medium containing 20 ng/ml EGF. After dissociation, the spheres proliferate for 3 days in the presence of EGF (20 ng/ml) during the so-called proliferation phase.
1. RFA-12 induces the differentiation of neural stem cells into neurons. […] However, if the neurospheres are treated with RFA-12 at a concentration of 10^−6 M to 10^−8 M, an increase in the number of neurons compared to the control (untreated cells) is observed. At concentrations of 10^−6 M, 10^−7 M and 10^−8 M we can observe a 120%, 90% and 80% increase, respectively, in the neuron population compared to the control fixed at 100%. […] In order to see whether RFA and its analogues also act on neural stem cell proliferation, these cells are dissociated and then cultured in the presence of RFA (10^−6 M and 10^−8 M) for 5 days, and then the number of living cells and their size and morphology are recorded.

[4] = system: neural stem cells; test: Differentiation of neural stem cells (neurospheres) into neurons, by immunocytochemistry; type: cell-based, mouse; settings: for increase in the neuron population compared to the control fixed at 100%: 3 days of differentiation
Description: as §3
The spheres are then collected and deposited on an poly-ornithine support in a defined medium in the presence of 2 ng/ml EGF. Under these conditions, the spheres adhere to the support and differentiate. The compounds to be tested, RFA-12 and its analogues, dissolved beforehand in ethanol, are added immediately after the deposit of the neurospheres at various concentrations ranging from 10^−5 M to 10^−9 M. The control cultures are treated with a negative control (ethanol) and a positive control (retinoic acid).
To screen our compounds we performed a double labeling, namely for neurons and for astrocytes.
For the detection of astrocytes, a secondary antibody coupled to a fluorochrome derived from rhodamine, Alexa488 (green), was used.
In order to be able to quantify the results, the nuclei are marked by an intercalating agent, TO-PRO (blue). The cultures are then observed under a confocal microscope.

[5] = ABTS test (antioxidant capacity, hydroxyl radicals from the Fenton reaction); type: physicochemical; settings: after 2 hours of incubation
From the text: In light of the results obtained with the DPPH test, the use of the ABTS ([2,2′-azino-bis-(3-ethylbenzthiazoline-6-sulfonic acid)]) test was considered, [11], [12]. The ABTS test is more sensitive insofar as it uses less encumbered hydroxyl radicals.
The ABTS molecule reacts with the hydroxyl (OH) radicals generated in the medium by the Fenton reaction to form a cation radical, ABTS^+ (green color), which is absorbent at 405 nm. Thus, when it is placed in the presence of an antioxidant molecule, one capable of reducing hydroxyl radicals, a reduction in absorbance at 405 nm can be observed.
On a 96-well ELISA plate, add: • 180 μl of a 50/50 water/ethanol mixture; • 30 μl of a 1 mM aqueous ABTS solution; • 30 μl of a 1 mM aqueous FeSO4 solution; • 30 μl of the product to be tested at the following concentrations: 10 mM, 5 mM, 2.5 mM, 1 mM, 0.5 mM, 0.1 mM, 0.01 mM and 0.001 mM; • 30 μl of a 100 mM aqueous H2O2 solution.
After incubating for 45 minutes, 1 hour and 2 hours, the result is given by measuring optical density at 405 nm using a spectrophotometer.
In order to maximally reduce solubility problems, RFA-10 was tested. Resveratrol was again used as a positive control.

[6] = DPPH test (antioxidant capacity); type: physicochemical; settings: after 3 hours of incubation (time stated for the hybrid molecules); read-out: IC50 (concentration at which 50% of the radicals are reduced), DPPH test
Description: The DPPH [(2,2′-di(4-tert-octylphenyl)1-picrylhydrazyl] test was used to determine the antioxidant capacity of our compounds [9]. DPPH is a stabilized radical that absorbs at 517 nm (violet color). When it is placed in the presence of an antioxidant molecule, the latter will react with the radical. Thus, a decrease in absorbance can be observed. Antioxidant capacity thus results in a decrease in absorbance at 517 nm.
a) Implementation of the DPPH Test
On a 96-well ELISA plate, add: • 100 μl of the various solutions at the following concentrations: 10 mM, 5 mM, 2.5 mM, 1 mM, 0.5 mM, 0.1 mM, 0.01 mM and 0.001 mM; • 100 μl of a 400 μM solution of DPPH in ethanol.
After incubating for 45 minutes, 2 hours and 3 hours, the result is given by measuring optical density at […] using a spectrophotometer.
The result is expressed as IC50, which is the concentration at which 50% of the radicals are reduced by the antioxidant molecule.
The inventors tested resveratrol, as a positive control, as well as RFA-10, RFA-12 and RFA-16.

[7] = LPS 0.01 μg/ml, 24 hours of activation, compound at 5×10^-6 M

For COc1ccc(/C=C/c2cc(OC)c(CCCCCCCCCCO)c(OC)c2)cc1OC [DMRFA-10], the “decrease in nitrite production compared to the control values” (shortened to “decrease in nitrite production”) [1] was 20% and the inhibition at 5 µM [2, 7] was 40%.
In the case of COc1ccc(/C=C/c2cc(OC)c(CCCCCCCCCCCCO)c(OC)c2)cc1OC [DMRFA-12], the inhibition at 5 µM [2, 7] is reported as 40%.
With COc1ccc(/C=C/c2cc(OC)cc(OC)c2)cc1 [M-resveratrol, reference compound] the inhibition at 5 µM ([2]; 24 h) was 20%.
For COc1ccc(/C=C/c2cc(OC)c(CCCCCCCCCCO)c(OC)c2)cc1 [MRFA-10], the “decrease in nitrite production” value [1] was 20% and the inhibition at 5 µM [2, 7] was 20 to 40%.
In the case of COc1ccc(/C=C/c2cc(OC)c(CCCCCCCCCCCCO)c(OC)c2)cc1 [MRFA-12], the inhibition at 5 µM [2, 7] is reported as 20 to 40%.
Work on COc1ccc(/C=C/c2cc(OC)c(CCCCCCCCCCCCCCO)c(OC)c2)cc1 [MRFA-14, (E)-14-(4-(4-methoxystyryl)-2,6-dimethoxyphenyl)tetradecan-1-ol] yielded an inhibition at 5 µM [2, 7] of 20 to 40%.
In the case of OCCCCCCCCCCCCc1c(O)cc(/C=C/c2ccc(O)cc2)cc1O [RFA-12], the “effect on neural stem cell proliferation” value [3] is reported as “inhibits the proliferation of neural stem cells”, the “decrease in nitrite levels” value ([1]; compound at 5×10^-6 M) is reported as 50% and the inhibition at 5 µM [2, 7] is reported as 40%. The “differentiation of neural stem cells, result in words” value ([4]; 10^-5 M) was “does not induce differentiation due to toxicity”, the “increase in the neuron population compared to the control fixed at 100%” value (from here on “increase in the neuron population … at 100%”) ([4]; 10^-6 M) was 120% and the “increase in the neuron population … at 100%” value ([4]; 10^-7 M) was 90%. The “increase in the neuron population … at 100%” value ([4]; 10^-8 M) was 80% and the “differentiation of neural stem cells, result in words” value ([4]; 10^-9 M) was “only weak activity”.
With Oc1ccc(/C=C/c2cc(O)cc(O)c2)cc1 [resveratrol] the IC50 [5] was 30 µM, the “decrease in nitrite production” value [1] was 20% and the inhibition at 5 µM [2, 7] was 30%. For the same molecule, the IC50 [6] was 10 µM.
